Values of other authors as cited in patent publication EP1487791B1, “A NOVEL ANTIFUNGAL MOLECULE 2-(3,4-DIMETHYL-2,5-DIHYDRO-1H-PYRROL-2-YL)- METHYLETHYL PENTANOATE” (priority 2002, dated 2003).

Details: reported by Zager, R.A., 2000; cited from earlier work

Q: Which CT50 does the source give for `C[C@@H]1[C@H](O)[C@@H](C)/C=C/C=C/C=C/C=C/C=C/C=C/C=C/[C@H](O[C@@H]2O[C@H](C)[C@@H](O)[C@H](N)[C@@H]2O)C[C@@H]2O[C@](O)(C[C@@H](O)C[C@@H](O)[C@H](O)CC[C@@H](O)C[C@@H](O)CC(=O)O[C@H]1C)C[C@H](O)[C@H]2C(=O)O` [amphotericin B] here?
A: 4.0 to 64.0 µg/mL
